For one assay, the target named is T1, rat P2X3 receptor (Rattus norvegicus, UniProt P49654).
T1 construct: expressed in transfected cells; host or cells: CHO-K1
T1 sequence (P49654 1-397): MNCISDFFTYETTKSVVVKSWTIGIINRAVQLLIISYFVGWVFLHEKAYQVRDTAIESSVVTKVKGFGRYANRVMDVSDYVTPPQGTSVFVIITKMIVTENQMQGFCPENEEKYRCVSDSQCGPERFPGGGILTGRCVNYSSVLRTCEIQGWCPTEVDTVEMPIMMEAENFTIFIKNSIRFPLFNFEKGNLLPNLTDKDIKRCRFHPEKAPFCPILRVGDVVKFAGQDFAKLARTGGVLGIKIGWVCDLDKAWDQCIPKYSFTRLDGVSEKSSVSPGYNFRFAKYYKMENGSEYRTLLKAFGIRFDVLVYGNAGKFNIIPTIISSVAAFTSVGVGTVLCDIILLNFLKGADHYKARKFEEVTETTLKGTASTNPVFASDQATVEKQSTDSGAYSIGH
The experiment in a line: P2X3 FLIPR (Fluorometric Imaging Plate Reader) assay. The conditions noted are these: CHO-K1 cells transfected with rat P2X3; agonist α,β-meATP 1 μM; read-out: pIC50 for the P2X3 receptor (converted). In kind it is cell-based. On the procedure:
(§1) CHO-K1 cells were transfected with cloned rat P2X3 or human P2X2/3 receptor subunits and passaged in flasks. 18-24 hours before the FLIPR experiment, cells were released from their flasks, centrifuged, and resuspended in nutrient medium at 2.5×10^5 cells/ml. The cells were aliquoted into black-walled 96-well plates at a density of 50,000 cells/well and incubated overnight in 5% CO2 at 37° C. On the day of the experiment, cells were washed in FLIPR buffer (calcium- and magnesium-free Hank's balanced salt solution, 10 mM HEPES, 2 mM CaCl2, 2.5 mM probenecid; FB). Each well received 100 μl FB and 100 μl of the fluorescent dye Fluo-3 AM [2 μM final conc.]. […]
(§2) Test compounds (dissolved in DMSO at 10 mM and serially diluted with FB) or vehicle were added to each well (25 μl of a 4× solution) and allowed to equilibrate for 20 minutes at room temperature. The plates were then placed in the FLIPR and a baseline fluorescence measurement (excitation at 488 nm and emission at 510-570 nm) was obtained for 10 seconds before a 100 μl/well agonist or vehicle addition. […] Fluorescence was measured for an additional 2 minutes at 1 second intervals after agonist addition. A final addition of ionomycin (5 μM, final concentration) was made to each well of the FLIPR test plate to establish cell viability and maximum fluorescence of dye-bound cytosolic calcium. […]

The target of the next assay is T2, human P2X2/3 receptor (Homo sapiens, UniProt P56373+Q9UBL9).
T2 construct: expressed in transfected cells; host or cells: CHO-K1
T2 sequence (P56373 1-397): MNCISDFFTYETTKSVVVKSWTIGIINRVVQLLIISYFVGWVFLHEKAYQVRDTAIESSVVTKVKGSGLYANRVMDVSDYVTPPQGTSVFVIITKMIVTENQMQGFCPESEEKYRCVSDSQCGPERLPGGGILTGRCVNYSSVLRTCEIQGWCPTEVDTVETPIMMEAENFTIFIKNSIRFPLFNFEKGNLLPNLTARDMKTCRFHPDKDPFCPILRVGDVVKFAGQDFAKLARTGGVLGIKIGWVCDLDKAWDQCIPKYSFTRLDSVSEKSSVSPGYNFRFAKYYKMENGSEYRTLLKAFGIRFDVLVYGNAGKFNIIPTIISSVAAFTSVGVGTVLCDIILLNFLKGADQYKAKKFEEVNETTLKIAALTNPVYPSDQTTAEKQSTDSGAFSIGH
T2 sequence (Q9UBL9 1-471): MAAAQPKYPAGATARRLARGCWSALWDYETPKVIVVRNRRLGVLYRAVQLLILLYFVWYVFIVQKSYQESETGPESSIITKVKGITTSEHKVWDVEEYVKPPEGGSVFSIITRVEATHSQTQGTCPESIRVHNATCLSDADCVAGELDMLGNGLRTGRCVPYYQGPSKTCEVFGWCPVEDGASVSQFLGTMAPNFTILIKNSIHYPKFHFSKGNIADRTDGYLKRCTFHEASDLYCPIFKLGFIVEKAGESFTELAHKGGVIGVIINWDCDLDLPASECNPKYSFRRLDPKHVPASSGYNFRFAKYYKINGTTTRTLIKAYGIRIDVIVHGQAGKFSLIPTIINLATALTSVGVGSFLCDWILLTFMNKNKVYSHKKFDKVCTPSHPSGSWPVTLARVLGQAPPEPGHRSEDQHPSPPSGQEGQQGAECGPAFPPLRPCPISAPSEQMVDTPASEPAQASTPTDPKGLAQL
The experiment in a line: P2X2/3 FLIPR (Fluorometric Imaging Plate Reader) assay. In kind it is cell-based. The conditions noted are these: CHO-K1 cells transfected with human P2X2/3; agonist α,β-meATP 5 μM; read-out: pIC50 for the P2X2/3 receptor (converted). On the procedure:
as §1, §2

Consider `COc1cc(C(C)C)c(Oc2cnc(NC(=O)C(C)C)nc2N)cc1I` [Compound 10, N-[4-Amino-5-(5-iodo-2-isopropyl-4-methoxy-phenoxy)-pyrimidin-2-yl]-isobutyramide], for which the IC50 at rat P2X3 receptor is roughly 15.8 nM; at human P2X2/3 receptor, roughly 39.8 nM.

Values taken from patent publication US7799796B2, “Diaminopyrimidines as P2X3 and P2X2/3 modulators” (Roche Palo Alto LLC, priority 2005, dated 2010).
